Measured values published in patent US8389523B2, “Substituted quinoxaline and an agrochemical composition thereof” (Kumiai Chemical Industry Co., Ltd., priority 2007, dated 2013).

Key:
Format in all cases: in vivo
Set-up in all cases: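 grade 0 to 5 of growth suppression where 5 is 90% or more and 0 below 10%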
[1] = system: Echinochloa oryzicola Vasing; experiment: Herbicidal effects in paddy field soil treatment (Test Example 1); details: paddy field soil treatment; 1000 g of the active ingredient per hectare; wettable powder added dropwise on water surface; 21st day after treatment
Outline: (§1)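 Weed seeds were sown into puddled, leveled paddy soil in pots and flooded to 3 cm water depth. One day later the diluted wettable powder formulation was dropped onto the water surface at 1000 g active ingredient per hectare. Herbicidal effect was scored on day 21 after greenhouse growth.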

[2] = system: Monochoria vaginalis (Burm. f.) Presl var. plantaginea (Roxb.) Solms-Laub.; experiment: as above; details: paddy field soil treatment; 1000 g of the active ingredient per hectare; wettable powder added dropwise on water surface; 21st day after treatment
Outline: as §1

[3] = system: Scirpus juncoides Roxb. var. ohwianus. T. Koyama; experiment: as above; details: paddy field soil treatment; 1000 g of the active ingredient per hectare; wettable powder added dropwise on water surface; 21st day after treatment
Outline: as §1

[4] = system: Abutilon theophrasti medicus; experiment: Herbicidal effects in upland field soil treatment (Test Example 2); details: 1000 g active ingredient per hectare, 21st day after treatment, criteria of Table 138
Outline: (§2)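 Pre-emergence soil application: seeds sown in upland field soil, covered, then wettable powder diluted in water sprayed on the soil surface at 1000 g active ingredient/ha in 1000 L/ha. Plants grown in greenhouse; herbicidal effect scored on a rating scale 21 days after treatment.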

Amaranthus viridis L. [5] = experiment: as above; details: 1000 g active ingredient per hectare, 21st day after treatment, criteria of Table 138
Outline: as §2

[6] = system: Abutilon theophrasti medicus; experiment: Herbicidal effects in upland field foliar treatment (Test Example 3); details: 1000 g of the active ingredient per hectare, 14th day after the treatment, wettable powder, criteria of Table 138
Outline: (§3)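 Weeds were sown in upland field soil and grown two weeks in a greenhouse before a foliar spray over the whole plant. Wettable powder was diluted in water and applied at 1000 L/ha, delivering 1000 g active ingredient/ha. Herbicidal effect was scored against set rating criteria 14 days after treatment.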

Amaranthus viridis L. [7] = experiment: as above; details: 1000 g of the active ingredient per hectare, 14th day after the treatment, wettable powder, criteria of Table 138
Outline: as §3

[8] = system: Echinochloa crus-galli (L.) P. Beauv. var. crus-galli; experiment: as above; details: 1000 g of the active ingredient per hectare, 14th day after the treatment, wettable powder, criteria of Table 138
Outline: as §3

Compound	Herbicidal effects index, Echinochloa oryzicola Vasing [1]	Herbicidal effects index, Monochoria vaginalis (Burm. f.) Presl var. plantaginea (Roxb.) Solms-Laub. [2]	Herbicidal effects index, Scirpus juncoides Roxb. var. ohwianus. T. Koyama [3]	herbicidal effect (index) on Abutilon theophrasti medicus [4]	herbicidal effect (index) on Amaranthus viridis L. (Amaranthus viridis L. [5])	herbicidal effects on Abutilon theophrasti medicus [6]	herbicidal effects on Amaranthus viridis L. (Amaranthus viridis L. [7])	herbicidal effects on Echinochloa crus-galli (L.) P. Beauv. var. crus-galli [8]
Cc1ccc(-n2c(=O)c(C(=O)C3=C(O)CCCC3=O)nc3ccccc32)c(F)c1 [II-212]	5	5	5	5	5	5	5	5
Cc1ccc(-n2c(=O)c(C(=O)C3=C(O)CCCC3=O)nc3ccccc32)cc1F [II-213]	5	5	5	5	5	5	5	4
Cc1ccc(-n2c(=O)c(C(=O)C3=C(O)CCCC3=O)nc3ccccc32)c(Cl)c1 [II-215]	5	5	5	5	5	5	5	5
CCOc1cc(-n2c(=O)c(C(=O)C3=C(O)CCCC3=O)nc3ccccc32)ccc1OC [II-217]	4	5	5	5	5	5	5	4
COc1ccc(-n2c(=O)c(C(=O)C3=C(O)CCCC3=O)nc3ccccc32)c(OC)c1OC [II-218]	4	5	5	5	5	5	5	4
COc1cc(F)c(-n2c(=O)c(C(=O)C3=C(O)CCCC3=O)nc3ccccc32)cc1F [II-219]	5	5	5	5	5	5	5	5
COc1c(F)cc(-n2c(=O)c(C(=O)C3=C(O)CCCC3=O)nc3ccccc32)cc1F [II-220]	5	5	5	5	5	5	5	5
COc1c(Cl)cc(-n2c(=O)c(C(=O)C3=C(O)CCCC3=O)nc3ccccc32)cc1Cl [II-221]	4	5	5	4	5	5	5	5
O=C1CCCC(O)=C1C(=O)c1nc2ccccc2n(-c2ccc3c(c2)CCC3)c1=O [II-222]	5	5	5	5	5	5	5	5
O=C1CCCC(O)=C1C(=O)c1nc2ccccc2n(-c2ccc3c(c2)CCCC3)c1=O [II-223]	5	5	5	4	5	5	5	5
O=C1CCCC(O)=C1C(=O)c1nc2ccccc2n(-c2ccc3c(c2)COC3)c1=O [II-224]	4	5	5	5	5	5	5	5
O=C1CCCC(O)=C1C(=O)c1nc2ccc(F)cc2n(-c2ccc3c(c2)OCO3)c1=O [II-225]	5	5	5	5	5	5	5	5
O=C1CCCC(O)=C1C(=O)c1nc2ccccc2n(-c2cccc3c2OCCO3)c1=O [II-226]	5	5	5	5	5	5	5	5
CC1(C)CCC(=O)C(C(=O)c2nc3ccccc3n(-c3ccc4c(c3)OCCO4)c2=O)=C1O [II-227]	5	5	5	5	5	4	5	5
CC1(C)CC(=O)C(C(=O)c2nc3ccccc3n(-c3ccc4c(c3)OCCO4)c2=O)=C(O)C1 [II-228]	5	5	5	5	5	5	5	5
CC1COc2cc(-n3c(=O)c(C(=O)C4=C(O)CCCC4=O)nc4ccccc43)ccc2O1 (stereo not drawn) [II-231]	5	5	5	4	5	5	5	5
O=C1CCCC(O)=C1C(=O)c1nc2c(F)cccc2n(-c2ccccc2)c1=O [II-233]	5	5	5	5	5	5	5	5
O=C1CCCC(O)=C1C(=O)c1nc2cc(F)ccc2n(-c2ccccc2)c1=O [II-237]	5	5	5	5	5	5	5	5
